Experimental data as given in ChEMBL document CHEMBL3813632, “Thiazolo[3,2-a]benzimidazol-3(2H)-one derivatives: Structure-activity relationships of selective nucleotide pyrophosphatase/phosphodiesterase1 (NPP1) inhibitors” (Bioorg Med Chem, 2016).

Tests used:
[1] = target: T1, Ectonucleotide pyrophosphatase/phosphodiesterase family member 1 (Homo sapiens, UniProt P22413); experiment: Competitive inhibition of human NPP1 expressed in African green monkey COS7 cells using ATP as substrate after 20 mins by Michaelis-Menten plot analysis; format: cell-based, COS-7
T1 sequence (P22413 whole entry): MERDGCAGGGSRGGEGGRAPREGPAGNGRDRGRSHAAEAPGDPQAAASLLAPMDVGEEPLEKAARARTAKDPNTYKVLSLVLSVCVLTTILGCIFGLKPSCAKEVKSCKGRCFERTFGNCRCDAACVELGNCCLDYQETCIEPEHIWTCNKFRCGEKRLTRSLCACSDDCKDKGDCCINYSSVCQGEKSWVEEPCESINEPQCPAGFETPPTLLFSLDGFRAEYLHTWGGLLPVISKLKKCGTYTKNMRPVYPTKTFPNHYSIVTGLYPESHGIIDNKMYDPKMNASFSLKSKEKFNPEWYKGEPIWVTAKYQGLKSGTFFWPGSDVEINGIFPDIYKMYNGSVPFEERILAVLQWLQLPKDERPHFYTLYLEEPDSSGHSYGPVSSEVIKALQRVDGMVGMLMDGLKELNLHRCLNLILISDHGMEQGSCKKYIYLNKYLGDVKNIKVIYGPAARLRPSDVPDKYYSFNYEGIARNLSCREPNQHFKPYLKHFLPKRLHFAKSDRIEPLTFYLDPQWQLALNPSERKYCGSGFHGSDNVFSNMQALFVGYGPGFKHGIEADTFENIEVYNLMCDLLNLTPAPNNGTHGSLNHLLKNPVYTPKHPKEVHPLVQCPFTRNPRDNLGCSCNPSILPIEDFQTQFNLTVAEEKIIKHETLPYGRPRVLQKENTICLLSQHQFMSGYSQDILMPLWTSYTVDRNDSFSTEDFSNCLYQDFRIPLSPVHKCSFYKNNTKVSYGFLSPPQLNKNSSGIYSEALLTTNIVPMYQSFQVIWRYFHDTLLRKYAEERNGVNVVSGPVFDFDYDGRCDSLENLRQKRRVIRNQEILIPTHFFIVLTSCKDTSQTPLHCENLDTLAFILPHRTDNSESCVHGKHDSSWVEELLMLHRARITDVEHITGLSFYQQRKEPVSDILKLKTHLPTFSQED

[2] = target: T2, Ectonucleotide pyrophosphatase/phosphodiesterase family member 1 (Homo sapiens) (UniProt P22413); experiment: Inhibition of human recombinant NPP1 expressed in insect SF9 cells using ATP as substrate at 10 uM preincubated with substrate followed by protein addition and subsequent incubation for 30 mins by capillary electrophoresis
T2 sequence (whole entry): T1 sequence (P22413 whole entry)

[3] = target: T1, Ectonucleotide pyrophosphatase/phosphodiesterase family member 1; experiment: Inhibition of human recombinant NPP1 expressed in insect SF9 cells using ATP as substrate preincubated with substrate followed by protein addition and subsequent incubation for 30 mins by capillary electrophoresis
[4] = target: T1, Ectonucleotide pyrophosphatase/phosphodiesterase family member 1; experiment: Competitive inhibition of human NPP1 transfected in HEK293 cells using p-Nph-5'-TMP as substrate preincubated for 3 mins followed by substrate addition measured after 15 mins by Cornish-Bowden plot analysis
[5] = Retention time of the compound in MgCl2/CaCl2/CHES buffer at pH 9 by LC-MS analysis; format: physicochemical
[6] = Drug level in MgCl2/CaCl2/CHES buffer treated with (Z)-2-((5-iodofuran-2-yl)methylene)benzo[d]thiazolo[3,2-a]imidazol-3(2H)-one at pH 9 after 24 hrs by LC-MS analysis; format: physicochemical; conditions: pH 9, 24 h

Work on `Nc1c(S(=O)(=O)O)cc(Nc2ccc(Nc3nc(Cl)nc(Nc4cccc(S(=O)(=O)O)c4)n3)c(S(=O)(=O)O)c2)c2c1C(=O)c1ccccc1C2=O` [REACTIVE BLUE 2] yielded a Ki [1] of 0.52 µM.
`O=c1/c(=C/c2ccc(-c3ccccc3)o2)sc2nc3ccccc3n12` showed an inhibition [2] of 48% and a Ki [3] of at least 10 µM.
`O=c1/c(=C/c2cccc(OCc3ccccc3)c2)sc2nc3ccccc3n12` showed an inhibition [2] of 10% and a Ki [3] of over 10 µM.
`O=c1/c(=C/c2cccs2)sc2nc3ccccc3n12` gave an inhibition [2] of 43% and a Ki [3] of at least 10 µM.
For `Cc1ccc(/C=c2\sc3nc4ccccc4n3c2=O)cc1`, the inhibition [2] was 28% and the Ki [3] was over 10 µM.
`O=c1/c(=C/c2ccc(Br)o2)sc2nc3ccccc3n12` gave a Ki [3] of 0.61 µM.
In the case of `C/C=c1\sc2nc3ccccc3n2c1=O`, the inhibition [2] is reported as 0% and the Ki [3] is reported as over 10 µM.
Work on `COc1cc(/C=c2/sc3nc4ccccc4n3c2=O)ccc1OCc1nnn[nH]1` yielded an inhibition [2] of 21% and a Ki [3] of over 10 µM.
`O=c1/c(=C/c2ccc(I)cc2)sc2nc3ccccc3n12` gave an inhibition [2] of 31% and a Ki [3] of over 10 µM.
Molecule `CCN(CC)c1ncnc2c1ncn2[C@@H]1O[C@H](COP(=O)(O)OP(=O)(O)C(Br)(Br)P(=O)(O)O)[C@@H](O)[C@H]1O` has a Ki [4] of 12 µM.
With `O=c1/c(=C/c2ccccn2)sc2nc3ccccc3n12` the inhibition [2] was 39% and the Ki [3] was over 10 µM.
`O=c1/c(=C\c2ccc3ccccc3c2)sc2nc3ccccc3n12` gave an inhibition [2] of 24% and a Ki [3] of over 10 µM.
Work on `CN(C)c1ccc(/C=c2\sc3nc4ccccc4n3c2=O)o1` yielded a Ki [3] of 4.21 µM.
Work on `O=c1/c(=C/c2cccc(Cc3ccccc3)c2)sc2nc3ccccc3n12` yielded an inhibition [2] of 11% and a Ki [3] of over 10 µM.
For `O=C(/C(O)=C\c1ccc(I)o1)n1c(=S)[nH]c2ccccc21`, the Retention_time [5] was 3.8 min and the Drug metabolism [6] was “metabolite_detected”.
`O=c1/c(=C/c2ccc(Sc3ccccc3)o2)sc2nc3ccccc3n12` gave an inhibition [2] of 40% and a Ki [3] of at least 10 µM.
For `O=c1/c(=C/c2ccco2)sc2nc3ccccc3n12`, the Ki [3] was 0.981 µM.
Work on `Cc1ccc(/C=c2\sc3nc4ccccc4n3c2=O)o1` yielded a Ki [3] of 2.11 µM.
`CC1CCN(c2cc(N3CCC(C)CC3)c([N+](=O)[O-])cc2/C=c2/sc3nc4ccccc4n3c2=O)CC1` showed a Ki [3] of 8.56 µM.
Work on `O=c1[nH]c2ccccc2cc1/C=c1/sc2nc3ccccc3n2c1=O` yielded an inhibition [2] of 30% and a Ki [3] of over 10 µM.
`O=c1/c(=C/c2ccccc2)sc2nc3ccccc3n12` showed an inhibition [2] of 31% and a Ki [3] of over 10 µM.
In the case of `O=c1/c(=C\c2ccccc2)sc2nc3ccccc3n12`, the inhibition [2] is reported as 10% and the Ki [3] is reported as over 10 µM.
Work on `O=c1/c(=C/c2ccc(N3CCOCC3)cc2)sc2nc3ccccc3n12` yielded a Ki [3] of 8.91 µM.
With `O=c1/c(=C/c2cccc(Oc3ccccc3)c2)sc2nc3ccccc3n12` the inhibition [2] was 13% and the Ki [3] was over 10 µM.
Molecule `O=c1/c(=C/c2ccc(Cl)cc2)sc2nc3ccccc3n12` has an inhibition [2] of 32% and a Ki [3] of over 10 µM.
Work on `O=c1/c(=C/c2ccc([N+](=O)[O-])o2)sc2nc3ccccc3n12` yielded a Ki [3] of 1.07 µM.
`O=c1/c(=C/C=C/c2ccccc2)sc2nc3ccccc3n12` showed an inhibition [2] of 24% and a Ki [3] of over 10 µM.
